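Tested at 5 concentrations; 48 h exposure; 96-well plates; endpoints linearly interpolated, else capped at highest concentration. TGI: total growth inhibition.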

Among the test systems are 786-0 renal; A498 renal; CCRF-CEM leukemia; HCT-15 colon; HOP-62 NSCLC; HOP-92 NSCLC; K-562 leukemia; NCI-H226 lung; RXF 393 renal; SF-268 CNS; SF-539 CNS; SK-OV-3 ovarian; TK-10 renal; UACC-257 melanoma; MOLT-4 leukemia.
What all share (experiment): NCI-60 cell line screen, 48 h

`NC(=S)N/N=C(/CCN1CCCC1)CC(C1=C(O)C2=CCCCC2OC1=O)c1ccccc1` (stereo not given): the TGI with 786-0 renal, in the experiment with A498 renal, in the experiment on CCRF-CEM leukemia, in the experiment on HCT-15 colon, in the experiment with HOP-62 NSCLC and in the experiment with HOP-92 NSCLC was > 100 µM in each case. The TGI in the experiment on K-562 leukemia, with NCI-H226 lung, in the experiment on RXF 393 renal, in the experiment on SF-268 CNS, with SF-539 CNS and in the experiment with SK-OV-3 ovarian was > 100 µM in each case. Further, the TGI in the experiment on TK-10 renal and in the experiment with UACC-257 melanoma was > 100 µM each time.
Take `CC(C)C1COC(C(C)(C)C2=N[C@@H](C(C)C)CO2)=N1` (stereo not given in full): the TGI in the experiment on 786-0 renal, in the experiment on CCRF-CEM leukemia, with HCT-15 colon, in the experiment on HOP-62 NSCLC, with HOP-92 NSCLC and with K-562 leukemia was > 100 µM each time. Moreover, the TGI in the experiment with MOLT-4 leukemia, in the experiment with NCI-H226 lung, in the experiment on RXF 393 renal, in the experiment on SF-268 CNS, in the experiment on SF-539 CNS and in the experiment with SK-OV-3 ovarian was > 100 µM in each case. Besides, the TGI in the experiment with TK-10 renal and in the experiment with UACC-257 melanoma was > 100 µM in each case.
Consider `Cc1ccc([N+](=O)[O-])cc1NC(=O)/C(CC(=O)c1sc(C(N)=S)nc1C)=N\N`, for which the TGI in the experiment on 786-0 renal is > 100 µM; in the experiment on A498 renal, > 100 µM; with CCRF-CEM leukemia it was 79.2 µM; with HCT-15 colon, > 100 µM; in the experiment on HOP-62 NSCLC it was > 100 µM; in the experiment on HOP-92 NSCLC, > 100 µM. The TGI in the experiment on K-562 leukemia, in the experiment on MOLT-4 leukemia, with RXF 393 renal, in the experiment with SF-268 CNS, with SF-539 CNS and with SK-OV-3 ovarian was > 100 µM throughout. In addition, the TGI in the experiment on TK-10 renal and in the experiment with UACC-257 melanoma was > 100 µM each time.
Take `COc1ccc(C2S/C(=C\c3ccc([N+](=O)[O-])cc3)C(=O)N2NC(=O)Cc2ccccc2)cc1` (stereo not given): the TGI in the experiment on 786-0 renal, in the experiment on A498 renal, in the experiment with CCRF-CEM leukemia, in the experiment with HCT-15 colon, with HOP-62 NSCLC and in the experiment with HOP-92 NSCLC was > 100 µM throughout. For the same compound, the TGI in the experiment on K-562 leukemia, in the experiment with MOLT-4 leukemia, with NCI-H226 lung, with RXF 393 renal, in the experiment with SF-268 CNS and with SF-539 CNS was > 100 µM each time. The TGI with SK-OV-3 ovarian, with TK-10 renal and in the experiment on UACC-257 melanoma was > 100 µM each time.
With `CN(C)CCSC(=Nc1ccccc1)n1cccc1`, the TGI with 786-0 renal was > 100 µM; in the experiment on CCRF-CEM leukemia it was > 100 µM; in the experiment with HCT-15 colon, > 100 µM; with HOP-62 NSCLC, > 100 µM; in the experiment on HOP-92 NSCLC, 82.1 µM; in the experiment with K-562 leukemia, > 100 µM. Further, the TGI with MOLT-4 leukemia was > 100 µM; in the experiment with NCI-H226 lung, 75.7 µM; with RXF 393 renal, > 100 µM; in the experiment with SF-268 CNS, > 100 µM; with SF-539 CNS it was > 100 µM; in the experiment with SK-OV-3 ovarian, > 100 µM. The TGI in the experiment on TK-10 renal and with UACC-257 melanoma was > 100 µM throughout.
For `COc1ccc(/C=N/NC(=O)CSc2nc(-c3ccccc3)c(-c3ccccc3)[nH]2)cc1OC`, the TGI in the experiment with 786-0 renal is 81 µM; in the experiment on A498 renal, 70 µM; in the experiment on CCRF-CEM leukemia, > 100 µM; in the experiment on HCT-15 colon it was 83.9 µM; in the experiment with HOP-62 NSCLC, 72.5 µM; with HOP-92 NSCLC, 84.6 µM. The TGI in the experiment on MOLT-4 leukemia is 37.6 µM; in the experiment on NCI-H226 lung it was 80.4 µM; in the experiment on RXF 393 renal, 52.7 µM; in the experiment with SF-268 CNS, > 100 µM; in the experiment on SF-539 CNS it was 45.6 µM; with SK-OV-3 ovarian, 63.3 µM. The results for the TGI in the experiment on TK-10 renal and with UACC-257 melanoma were > 100 µM and 57.3 µM, respectively.
Turning to `COc1cc2c(cc1OC)C(Cc1cc(Br)c(OC)c(OC)c1)=[N+](C)CC2`, the TGI with 786-0 renal, in the experiment on CCRF-CEM leukemia, in the experiment with HCT-15 colon, with HOP-62 NSCLC, in the experiment on HOP-92 NSCLC and in the experiment with K-562 leukemia was > 100 µM in each case. Besides, the TGI in the experiment with NCI-H226 lung, with RXF 393 renal, in the experiment with SF-268 CNS, in the experiment on SF-539 CNS, with SK-OV-3 ovarian and with TK-10 renal was > 100 µM throughout. Besides, the TGI in the experiment with UACC-257 melanoma is > 100 µM.
As to `COC(=O)[C@H]1C2CC[C@@H]3C45C[C@@H](c6ccoc6)O[C@@H]4O[C@@H](O2)C31CCC5C` (stereo not given in full), the TGI in the experiment with 786-0 renal, in the experiment on A498 renal, in the experiment with CCRF-CEM leukemia, in the experiment with HCT-15 colon, with HOP-62 NSCLC and in the experiment on HOP-92 NSCLC was > 100 µM throughout. For the same compound, the TGI in the experiment on K-562 leukemia, in the experiment with MOLT-4 leukemia, in the experiment on NCI-H226 lung, with SF-268 CNS, in the experiment on SF-539 CNS and with SK-OV-3 ovarian was > 100 µM throughout. The TGI in the experiment with TK-10 renal and with UACC-257 melanoma was > 100 µM in each case.
Consider `N#CC(C(=S)Nc1ccccc1)=C1Nc2ccccc2N1`, for which the TGI with 786-0 renal, with A498 renal, in the experiment with CCRF-CEM leukemia, in the experiment with HCT-15 colon, in the experiment on HOP-62 NSCLC and in the experiment with HOP-92 NSCLC was > 10 µM each time. For the same compound, the TGI in the experiment on K-562 leukemia, with MOLT-4 leukemia, in the experiment with NCI-H226 lung, in the experiment with SF-268 CNS, with SF-539 CNS and in the experiment with SK-OV-3 ovarian was > 10 µM throughout. Also, the TGI with TK-10 renal and in the experiment on UACC-257 melanoma was > 10 µM in each case.
Regarding `CC1(C)OC2C(O1)[C@H]1OC(C(Cl)(Cl)Cl)=N[C@H]1C(I)[C@H]2N1C(=O)c2ccccc2C1=O` (stereo not given in full), the TGI with 786-0 renal, with A498 renal, with CCRF-CEM leukemia, in the experiment with HCT-15 colon, with HOP-62 NSCLC and with HOP-92 NSCLC was > 100 µM each time. The TGI is > 100 µM with K-562 leukemia; 58.3 µM with MOLT-4 leukemia; > 100 µM with NCI-H226 lung; 88.6 µM in the experiment with RXF 393 renal; > 100 µM in the experiment with SF-268 CNS; > 100 µM in the experiment on SF-539 CNS. In addition, the TGI in the experiment on UACC-257 melanoma is > 100 µM.
On to `CCOC(=O)/C(=C/c1ccccc1)N(CC)CC`, for which the TGI in the experiment on 786-0 renal, in the experiment on A498 renal, in the experiment on CCRF-CEM leukemia, with HCT-15 colon, in the experiment with HOP-62 NSCLC and with HOP-92 NSCLC was > 100 µM each time. The TGI in the experiment on K-562 leukemia, in the experiment with MOLT-4 leukemia, with NCI-H226 lung, with SF-268 CNS, with SF-539 CNS and in the experiment with SK-OV-3 ovarian was > 100 µM in each case. The TGI in the experiment with TK-10 renal and in the experiment on UACC-257 melanoma was > 100 µM each time.
For `CCOc1cc2cnc3c4cc(OC)c(OC)cc4ccc3c2cc1OC`, the TGI was > 100 µM with 786-0 renal; 88.6 µM in the experiment on CCRF-CEM leukemia; > 100 µM in the experiment with HCT-15 colon; > 100 µM in the experiment on HOP-62 NSCLC; > 100 µM with HOP-92 NSCLC; > 100 µM in the experiment on K-562 leukemia. Also, the TGI in the experiment with MOLT-4 leukemia, with NCI-H226 lung, in the experiment on RXF 393 renal, with SF-268 CNS, in the experiment with SF-539 CNS and with SK-OV-3 ovarian was > 100 µM in each case. Further, the TGI with TK-10 renal and in the experiment on UACC-257 melanoma was > 100 µM throughout.
In the case of `COc1cc(CO)cc2c1[nH]c1ccccc12`, the TGI in the experiment with 786-0 renal, in the experiment with CCRF-CEM leukemia, in the experiment with HCT-15 colon, in the experiment with HOP-62 NSCLC, in the experiment on HOP-92 NSCLC and with K-562 leukemia was > 25 µM each time. The TGI is > 25 µM in the experiment on MOLT-4 leukemia; 5.27 µM in the experiment on NCI-H226 lung; > 25 µM in the experiment with RXF 393 renal; > 25 µM with SF-268 CNS; > 25 µM in the experiment with SF-539 CNS; > 25 µM in the experiment with SK-OV-3 ovarian. Besides, the TGI in the experiment with TK-10 renal is > 25 µM.
For the compound `CC1=C(c2ccccc2)CON(c2ccccc2)C1`, the TGI in the experiment on 786-0 renal, in the experiment on CCRF-CEM leukemia, in the experiment on HCT-15 colon, in the experiment on HOP-62 NSCLC, in the experiment on K-562 leukemia and with MOLT-4 leukemia was > 100 µM each time. The TGI with NCI-H226 lung was > 100 µM; in the experiment with RXF 393 renal, 86.2 µM; in the experiment with SF-268 CNS, > 100 µM; with SF-539 CNS, > 100 µM; with SK-OV-3 ovarian, > 100 µM; in the experiment with UACC-257 melanoma, > 100 µM.
`O=C(c1nc2ccc(Cl)cc2[nH]c1=O)C(O)c1ccco1` (stereo not given): the TGI in the experiment on 786-0 renal is > 100 µM; with CCRF-CEM leukemia, > 100 µM; in the experiment on HCT-15 colon it was 37.1 µM; with HOP-92 NSCLC it was > 100 µM; in the experiment with K-562 leukemia, > 100 µM; in the experiment with MOLT-4 leukemia, > 100 µM. The TGI in the experiment on NCI-H226 lung, in the experiment on RXF 393 renal, with SF-268 CNS, in the experiment with SF-539 CNS, in the experiment with SK-OV-3 ovarian and in the experiment with TK-10 renal was > 100 µM throughout. In addition, the TGI in the experiment with UACC-257 melanoma is > 100 µM.

The values above are taken from PubChem BioAssay (NCI).
